Test results published in PubChem BioAssay (NCI).
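All cell lines were grown in 96-well plates and treated with compound for 48 hours. At the GI50, growth is halved. TGI is the concentration that stops growth completely.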

Legend:
Test in all cases: NCI tumour cell line growth inhibition, 48 h
786-0 renal = test system: 786-0 renal
K-562 leukemia = test system: K-562 leukemia
MALME-3M melanoma = test system: MALME-3M melanoma
MOLT-4 leukemia = test system: MOLT-4 leukemia
OVCAR-3 ovarian = test system: OVCAR-3 ovarian
OVCAR-5 ovarian = test system: OVCAR-5 ovarian
RXF 393 renal = test system: RXF 393 renal
SN12C renal = test system: SN12C renal
UACC-257 melanoma = test system: UACC-257 melanoma
HS 578T breast = test system: HS 578T breast

| Compound | GI50 (786-0 renal) | TGI (786-0 renal) | GI50 (K-562 leukemia) | TGI (K-562 leukemia) | GI50 (MALME-3M melanoma) | TGI (MALME-3M melanoma) | GI50 (MOLT-4 leukemia) | TGI (MOLT-4 leukemia) | GI50 (OVCAR-3 ovarian) | TGI (OVCAR-3 ovarian) | GI50 (OVCAR-5 ovarian) | TGI (OVCAR-5 ovarian) | GI50 (RXF 393 renal) | TGI (RXF 393 renal) | GI50 (SN12C renal) | TGI (SN12C renal) | GI50 (UACC-257 melanoma) | TGI (UACC-257 melanoma) | GI50 (HS 578T breast) | TGI (HS 578T breast) |
| --- | --- | --- | --- | --- | --- | --- | --- | --- | --- | --- | --- | --- | --- | --- | --- | --- | --- | --- | --- | --- |
| COc1ccc(-c2nnc(SCC(=O)Nc3ccc(C(=O)/C=C/c4cc(OC)c(OC)c(OC)c4)cc3)n2-c2ccccc2)cc1OC | 3.53 µM | > 10 µM | 4.92 µM | > 10 µM | > 10 µM | > 10 µM | 9.46 µM | > 10 µM | 3.18 µM | > 10 µM | > 10 µM | > 10 µM | 2.13 µM | 6.85 µM | > 10 µM | > 10 µM | > 10 µM | > 10 µM |  |  |
| O=c1ccn(C2(CO)C=C(CO)C(O)C2O)c(=O)[nH]1 (stereo not drawn) |  | > 25.7 µM |  | > 25.7 µM |  | > 25.7 µM |  | > 25.7 µM |  | > 25.7 µM |  |  |  | > 25.7 µM |  | > 25.7 µM |  | > 25.7 µM |  |  |
| CCCC(=O)c1ccc(=O)n(C)c1 |  | > 100 µM |  | > 100 µM |  | > 100 µM |  | > 100 µM |  | > 100 µM |  | > 100 µM |  | > 100 µM |  | > 100 µM |  |  |  |  |
| COc1cc(C(=O)O/N=C(\N)Cc2cccc3ccccc23)cc(OC)c1OC | 13.5 µM | 26.7 µM |  |  | 8.4 µM | 21.9 µM | 4.53 µM | 29.4 µM | 9.62 µM | 23.3 µM | 13 µM | 26.5 µM | 10.7 µM | 23.9 µM | 17.4 µM | 42.3 µM | 15.2 µM | 29.2 µM | 6.64 µM | 41.4 µM |
| Nc1c(C(=O)NC23CC4CC(CC(C4)C2)C3)[n+]([O-])c2ccccc2[n+]1[O-] |  | > 100 µM |  | > 100 µM |  | > 100 µM |  | > 100 µM |  | > 100 µM |  | > 100 µM |  |  |  | > 100 µM |  | > 100 µM |  |  |
| Cc1cn([C@H]2C[C@H](O)[C@@H](CO)O2)c(=O)nc1N |  | > 100 µM |  | > 100 µM |  | > 100 µM |  | > 100 µM |  | > 100 µM |  | > 100 µM |  |  |  | > 100 µM |  | > 100 µM |  | > 100 µM |
| O=C(Nc1ccc(Nc2ccncc2)cc1)c1ccc(Nc2ccnc3ccc([N+](=O)[O-])cc23)cc1[N+](=O)[O-] | 6.03 µM | 42.4 µM | 36.4 µM | > 100 µM |  |  | 43.9 µM | > 100 µM | 24.7 µM | > 89.5 µM | 38 µM | > 88.4 µM | 24.9 µM | 42.5 µM | 20.4 µM | > 55.5 µM | 11.3 µM | 29.5 µM | 0.691 µM |  |
| COc1ccc(OC(C)C(=O)O)c2c1CCCC2=O (stereo not drawn) |  | > 100 µM |  | > 100 µM |  | > 100 µM |  | > 100 µM |  | > 100 µM |  | > 100 µM |  | > 100 µM |  | > 100 µM |  | > 100 µM |  |  |
| CC(C)CN1CC(C)C(=O)NC1=O (stereo not drawn) |  | > 100 µM |  | > 100 µM |  | > 100 µM |  | > 100 µM |  |  |  | > 100 µM |  | > 100 µM |  | > 100 µM |  | > 100 µM |  |  |
| O=C(Cc1csc2nc(-c3ccc(Br)cc3)cn12)N/N=C/c1ccc(Cl)cc1Cl | 25.8 µM | 73.4 µM |  |  |  |  |  | 26.3 µM | 34.9 µM | > 100 µM | 28.6 µM | 67.3 µM | 28.4 µM | 85.1 µM | 84.7 µM | > 100 µM | 68.9 µM | > 100 µM | 31.8 µM | 89.1 µM |
